In patent publication US20140303216A1, “COMPOSITIONS AND METHODS FOR INDUCING DISRUPTION OF BLOOD VASCULATURE AND FOR REDUCING ANGIOGENESIS” (BOARD OF REGENTS, THE UNIVERSITY OF TEXAS SYSTEM, priority 2011, published 2014):

Experiments:
[1] = tested on: angiogenesis; settings: from the literature; cited from earlier work
[2] = tested on: HUVECs; test: HUVEC wound scratch cell migration assay; type: cell-based, human; settings: added to 250 μM TBZ in 1% DMSO; Y27632 preincubated 2 h
Procedure: HUVECs (1.2×10^5 cells) were seeded into 24-well plate for 24 h, and the monolayers were wounded identically. Then, cells were washed with PBS and treated with EBM-2 containing 1% DMSO or 250 μM TBZ dissolved in 1% DMSO with combination of Y27632 or GGPP (Sigma). In the case of Y27632 treatment, cells were preincubated for 2 h before wounding. Cells were photographed at time zero and after 15 h, and the ratios of cell free area [(0 h-15 h)/0 h] were calculated.

[3] = tested on: developing Xenopus embryos; test: Xenopus embryo angiogenesis, in situ hybridization for erg/apinr and kdr:GFP imaging; type: in vivo, Xenopus laevis; settings: for anti-angiogenic activity of other benzimidazoles: Xenopus in vivo, at dosages at which TBZ reduces angiogenesis (FIG. 14)
Description: (§1) Female adult Xenopus were ovulated by injections of human chorionic gonadotropin, and eggs were fertilized in vitro and dejellied in 3% cysteine (pH 7.9) and subsequently reared in ⅓×Marc's modified Ringer's (MMR) solution. For microinjections, embryos were placed in a solution of 2% Ficoll in ⅓×MMR solution, injected using forceps and an Oxford universal manipulator, reared in 2% Ficoll in ⅓×MMR to stage 9, then washed and reared in ⅓×MMR solution alone. For bilateral rab11b knock-down experiments, the posterior cardinal vein and intersomitic veins were targeted by injecting Morpholino antisense oligonucleotides (MOs) into the two ventral cells equatorially at the four-cell stage. For unilateral knockdown, only one ventral cell was injected. MOs were injected at 40 ng per blastomere. For the experiments to see the drug effects, embryos were placed in a solution of each chemical dissolved in 1% DMSO diluted in ⅓×MMR during indicated stages. For bead micro-surgery implantation, Affi-Gel Blue Gel beads (Bio-Rad) were soaked with 0.7 mg/ml recombinant mouse VEGF 164 aa (R&D systems) or BSA as a control. Whole-mount in situ hybridization for erg and apinr was performed as described^29.
To analyze action of TBZ precisely on inhibition of angiogenesis and disruption of vasculature, we tested TBZ on two different developmental stages. Xenopus late tailbud embryos at stage 31 were selected for testing the inhibitory effect of TBZ on angiogenesis (FIG. 3A-D). This embryonic stage coincides with the onset of intersomitic vein (ISV) angiogenesis, the process of forming smaller blood vessels by sprouting from pre-existing blood vessels. To observe disruption of existing vasculature, we selected stage 35/36 embryos in which the posterior cardinal vein (PCV) and ISV are already developed (FIG. 15).

[4] = tested on: Xenopus embryos; test: Xenopus embryo morphology and developmental defects; type: in vivo; settings: FIG. 14; 250 μM for 2-(Chloromethyl)benzimidazole
Description: as §1, with “1⁄3×Marc's” for “⅓×Marc's”, “1⁄3×MMR” for “⅓×MMR”, “[…] performed as described^29. Immunostaining for Xenopus” for “erg and apinr”, “previously described (Lee et al., 2008). Embryos at stage 35-36 were fixed in 1×MEMFA. 12/101 (1:500; DSHB), and primary antibodies were detected with Alexa Fluor-488 or 555 goat anti-mouse Immunoglobulin (IgG).” for “described^29.”

[5] = tested on: lung cancer; settings: treatment of lung cancer; cited from earlier work

Row | SMILES | Known effects on angiogenesis [1] | anti-angiogenic activity of other benzimidazoles [3] | further results
1 | [N]=O [Nitric oxide] | Activator^# |  | 
2 | CC(C)=CCC/C(C)=C/CC/C(C)=C/CC/C(C)=C/COP(=O)(O)OP(=O)(O)O [GGPP, geranyl-geranyl pyrophosphate] |  |  | reversal of TBZ-impeded HUVEC migration by added compound [2]: did not reverse
3 | CC[C@H](C)C(=O)O[C@H]1C[C@@H](C)C=C2C=C[C@H](C)[C@H](CC[C@@H]3C[C@@H](O)CC(=O)O3)[C@H]21 [lovastatin] | inhibit angiogenesis |  | 
4 | Nc1nc2ccc(C(=O)c3ccc(F)cc3)cc2[nH]1 [2-Aminoflubendazole] |  | not anti-angiogenic | 
5 | COc1c(C)c2c(c(O)c1C/C=C(\C)CCC(=O)O)C(=O)OC2 [Mycophenolic acid] | Inhibitor* |  | 
6 | Nc1ccc2[nH]c(C(F)(F)F)nc2c1 [5-Amino-2-(trifluoromethyl)benzimidazole] |  | not anti-angiogenic | 
7 | c1ccc2[nH]cnc2c1 [Benzimidazole] |  | not anti-angiogenic | activity in reducing angiogenesis ([3]; doses up to 1 mM): inactive
8 | C[C@@H](N)[C@H]1CC[C@H](C(=O)Nc2ccncc2)CC1 [Y27632] |  |  | reversal of TBZ-impeded HUVEC migration by added compound [2]: significant and dose-dependent rescue
9 | Clc1ccc2nc(C(Cl)(Cl)Cl)[nH]c2c1 [5-Chloro-2-(trichloromethyl)benzimidazole] |  | not anti-angiogenic | 
10 | ClCc1nc2ccccc2[nH]1 [2-(Chloromethyl)benzimidazole] |  | not anti-angiogenic | developmental (birth) defects in Xenopus [4]: pleiotropic birth defects
11 | O=C(O)c1cccc2[nH]cnc12 [1H-Benzimidazole-4-carboxylic acid] |  | not anti-angiogenic | 
12 | Cc1ccc2c(=O)c3cccc(CC(=O)O)c3oc2c1C [ASA404] |  |  | efficacy in Phase III clinical trial [5]: failed to show efficacy
13 | O=S(=O)([O-])[O-].[Cu+2] [CuSO4] | Activators^‡ |  | 
14 | O=c1[nH]cc(F)c(=O)[nH]1 [5-fluorouracil] | Inhibitor^† |  | 
